In ChEMBL document CHEMBL1128559, “Inhibition of the oncogene product p185erbB-2 in vitro and in vivo by geldanamycin and dihydrogeldanamycin derivatives” (J Med Chem, 1995):

Columns and labels:
Mus musculus [1] = test: In vivo inhibition of phospho-p185erbB-2 expression in FRE/erbB-2 tumors in nu/nu mice at 200 mg/kg dose.
SK-BR-3 [2] = test: Inhibition of oncogene product p185 erbB-2 from human breast cancer cells(SK-BR-3 cells).
Mus musculus [3] = test: In vivo inhibition of phospho-p185erbB-2 expression in human SK-BR-3 tumors at 50 mg/kg ip dose in mice; assay type: functional; details: SK-BR-3, ip, route intraperitoneal
SK-BR-3 [4] = test: In vitro inhibition of phospho-p185erbB-2 expression in human breast cancer cells(SK-BR-3 cells) at 50 mg/kg dose; assay type: functional; set-up: dose 50 mg/kg
Mus musculus [5] = test: In vivo inhibition of phospho-p185erbB-2 expression in FRE/erbB-2 tumors at 400 mg/kg ip dose in mice; details: FRE/erbB-2, ip
Mus musculus [6] = test: In vivo inhibition of phospho-p185erbB-2 expression in human SK-BR-3 tumors at 100 mg/kg ip dose in mice; assay type: functional; details: SK-BR-3, ip, route intraperitoneal
SK-BR-3 [7] = test: Inhibition of oncogene product p185 erbB-2 from human breast cancer cells(SK-BR-3 cells) at 50 mg/kg dose.; assay type: functional
Mus musculus [8] = test: In vivo inhibition of phospho-p185erbB-2 expression in FRE/erbB-2 tumors in nu/nu mice at 100 mg/kg dose.
Mus musculus [9] = organism: Mus musculus; details: 400 mg/kg
Description: In vivo inhibition of phospho-p185erbB-2 expression in human SK-BR-3 tumors at 400 mg/kg dose in mice (lethal)

Mus musculus [10] = test: In vivo inhibition of phospho-p185erbB-2 expression in FRE/erbB-2 tumors at 200 mg/kg dose ip in mice; details: FRE/erbB-2, ip
SK-BR-3 [11] = test: […] inhibition of phospho-p185erbB-2 expression in human breast cancer cells(SK-BR-3 cells) at 200 mg/kg dose.; assay type: functional
Mus musculus [12] = test: In vivo inhibition of phospho-p185erbB-2 expression in human SK-BR-3 tumors at 100 mg/kg dose in mice; assay type: functional
Mus musculus [13] = test: In vivo inhibition of phospho-p185erbB-2 expression in FRE/erbB-2 tumors at 400 mg/kg dose in mice
Mus musculus [14] = test: In vivo inhibition of phospho-p185erbB-2 expression in FRE/erbB-2 tumors at 200 mg/kg dose in mice
Mus musculus [15] = test: In vivo inhibition of phospho-p185erbB-2 expression in FRE/erbB-2 tumors at 50 mg/kg dose in mice

Structure (SMILES) | IC50 (SK-BR-3 [2]) [nM] | inhibition in vivo at 200 mg/kg (Mus musculus [1]) [%] | inhibition in vivo at 100 mg/kg (Mus musculus [8]) [%] | also measured
CO[C@H]1C[C@H](C)CC2=C(NCCF)C(=O)C=C(NC(=O)/C(C)=C/CC[C@H](OC)[C@@H](OC(N)=O)/C(C)=C/[C@H](C)[C@H]1O)C2=O | 27 | 53 | – | –
CO[C@H]1/C=C\C=C(/C)C(=O)NC2=CC(=O)C=C(C[C@@H](C)C[C@H](OC)[C@H](O)[C@@H](C)/C=C(\C)[C@@H]1OC(N)=O)C2=O | – | – | – | inhibition in vivo at 50 mg/kg (Mus musculus [3]): 29%; IC50 (SK-BR-3 [4]): 300 nM; inhibition in vivo at 400 mg/kg (Mus musculus [5]): 57%; inhibition in vivo at 100 mg/kg (Mus musculus [6]): 34%
CO[C@H]1C[C@H](C)CC2=C3N=C(N(C)C)N=C3C=C(NC(=O)/C(C)=C/CC[C@H](OC)[C@@H](OC(N)=O)/C(C)=C/[C@H](C)[C@H]1O)C2=O | – | – | – | IC50 (SK-BR-3 [7]): 50 nM
CO[C@H]1/C=C\C=C(/C)C(=O)NC2=CC(=O)C(N3CCC3)=C(C[C@@H](C)C[C@H](OC)[C@H](O)[C@@H](C)/C=C(\C)[C@@H]1OC(N)=O)C2=O | 23 | 68 | 61 | –
CO[C@H]1C[C@H](C)CC2=C(N3CC(O)C3)C(=O)C=C(NC(=O)/C(C)=C/CC[C@H](OC)[C@@H](OC(N)=O)/C(C)=C/[C@H](C)[C@H]1O)C2=O | 50 | 44 | 29 | –
CCN(CC)C1=NC2=C3C[C@@H](C)C[C@H](OC)[C@H](O)[C@@H](C)/C=C(\C)[C@H](OC(N)=O)[C@@H](OC)/C=C\C=C(/C)C(=O)NC(=CC2=N1)C3=O | – | – | – | IC50 (SK-BR-3 [7]): 210 nM
CO[C@H]1/C=C\C=C(/C)C(=O)NC2=CC(=O)C(NCCF)=C(C[C@@H](C)C[C@H](OC)[C@H](O)[C@@H](C)/C=C(\C)[C@@H]1OC(N)=O)C2=O | 12 | 68 | 50 | –
CO[C@H]1/C=C\C=C(/C)C(=O)NC2=CC3=NC(N(C)C)=NC3=C(C[C@@H](C)C[C@H](OC)[C@H](O)[C@@H](C)/C=C(\C)[C@@H]1OC(N)=O)C2=O | – | – | – | IC50 (SK-BR-3 [7]): 50 nM
CO[C@H]1/C=C\C=C(/C)C(=O)NC2=CC3=NC(N(C)Cc4ccccc4)=NC3=C(C[C@@H](C)C[C@H](OC)[C@H](O)[C@@H](C)/C=C(\C)[C@@H]1OC(N)=O)C2=O | – | – | – | IC50 (SK-BR-3 [7]): 300 nM
CO[C@H]1C[C@H](C)CC2=C(NCCC#N)C(=O)C=C(NC(=O)/C(C)=C/CC[C@H](OC)[C@@H](OC(N)=O)/C(C)=C/[C@H](C)[C@H]1O)C2=O | – | – | – | IC50 (SK-BR-3 [7]): 30 nM
CO[C@H]1/C=C\C=C(/C)C(=O)NC2=CC(=O)C(NCCC#N)=C(C[C@@H](C)C[C@H](OC)[C@H](O)[C@@H](C)/C=C(\C)[C@@H]1OC(N)=O)C2=O | – | – | – | IC50 (SK-BR-3 [7]): 17 nM; inhibition in vivo at 200 mg/kg (SK-BR-3 [11]): 61%
CO[C@H]1C[C@H](C)CC2=C(NCCO)C(=O)C=C(NC(=O)/C(C)=C/CC[C@H](OC)[C@@H](OC(N)=O)/C(C)=C/[C@H](C)[C@H]1O)C2=O | 34 | 55 | – | –
COCCNC1=C2C[C@@H](C)C[C@H](OC)[C@H](O)[C@@H](C)/C=C(\C)[C@H](OC(N)=O)[C@@H](OC)CC/C=C(\C)C(=O)NC(=CC1=O)C2=O | 33 | 69 | 42 | –
CO[C@H]1C[C@H](C)CC2=C(NCCSC)C(=O)C=C(NC(=O)/C(C)=C/CC[C@H](OC)[C@@H](OC(N)=O)/C(C)=C/[C@H](C)[C@H]1O)C2=O | 140 | – | – | –
CO[C@H]1/C=C\C=C(/C)C(=O)NC2=CC(=O)C(O)=C(C[C@@H](C)C[C@H](OC)[C@H](O)[C@@H](C)/C=C(\C)[C@@H]1OC(N)=O)C2=O | > 3700 | – | – | –
CO[C@H]1C[C@H](C)CC2=C(NCC(C)O)C(=O)C=C(NC(=O)/C(C)=C/CC[C@H](OC)[C@@H](OC(N)=O)/C(C)=C/[C@H](C)[C@H]1O)C2=O (some centres not stated) | 83 | 32 | – | –
CO[C@H]1C[C@H](C)CC2=C(NC3CC3)C(=O)C=C(NC(=O)/C(C)=C/CC[C@H](OC)[C@@H](OC(N)=O)/C(C)=C/[C@H](C)[C@H]1O)C2=O | 46 | – | 31 | –
CO[C@H]1/C=C\C=C(/C)C(=O)NC2=CC(=O)C(N)=C(C[C@@H](C)C[C@H](OC)[C@H](O)[C@@H](C)/C=C(\C)[C@@H]1OC(N)=O)C2=O | 37 | 47 | – | –

More lines, main results first:

IC50 (SK-BR-3 [2]) [nM] | Structure (SMILES) | inhibition in vivo at 200 mg/kg (Mus musculus [1]) [%] | inhibition in vivo at 100 mg/kg (Mus musculus [8]) [%] | also measured
40 | CO[C@H]1C[C@H](C)CC2=C(N)C(=O)C=C(NC(=O)/C(C)=C/CC[C@H](OC)[C@@H](OC(N)=O)/C(C)=C/[C@H](C)[C@H]1O)C2=O | 44 | 45 | –
70 | COC1=C2C[C@@H](C)C[C@H](OC)[C@H](O)[C@@H](C)/C=C(\C)[C@H](OC(N)=O)[C@@H](OC)/C=C\C=C(/C)C(=O)NC(=CC1=O)C2=O [GELDANAMYCIN] | – | – | inhibition (Mus musculus [9]): Lethal; inhibition in vivo at 200 mg/kg (Mus musculus [10]): 25%; inhibition in vivo at 50 mg/kg (Mus musculus [3]): 30%; inhibition in vivo at 100 mg/kg (Mus musculus [6]): 6%
12 | CNC1=C2C[C@@H](C)C[C@H](OC)[C@H](O)[C@@H](C)/C=C(\C)[C@H](OC(N)=O)[C@@H](OC)CC/C=C(\C)C(=O)NC(=CC1=O)C2=O | 37 | – | –
31 | C=CCNC1=C2C[C@@H](C)C[C@H](OC)[C@H](O)[C@@H](C)/C=C(\C)[C@H](OC(N)=O)[C@@H](OC)/C=C\C=C(/C)C(=O)NC(=CC1=O)C2=O [TANESPIMYCIN] | 68 | 55 | inhibition in vivo at 100 mg/kg (Mus musculus [12]): 60%; inhibition in vivo at 400 mg/kg (Mus musculus [13]): 72%; inhibition in vivo at 200 mg/kg (Mus musculus [14]): 80%; inhibition in vivo at 50 mg/kg (Mus musculus [15]): 27%
60 | CO[C@H]1/C=C\C=C(/C)C(=O)NC2=CC(=O)C(NC(C)C)=C(C[C@@H](C)C[C@H](OC)[C@H](O)[C@@H](C)/C=C(\C)[C@@H]1OC(N)=O)C2=O | 87 | – | –
99 | CO[C@H]1/C=C\C=C(/C)C(=O)NC2=CC(=O)C(NC[C@H](C)O)=C(C[C@@H](C)C[C@H](OC)[C@H](O)[C@@H](C)/C=C(\C)[C@@H]1OC(N)=O)C2=O | 70 | 65 | –
> 3260 | CO[C@H]1/C=C\C=C(/C)C(=O)NC2=CC(=O)C(NC3CCCC3)=C(C[C@@H](C)C[C@H](OC)[C@H](O)[C@@H](C)/C=C(\C)[C@@H]1OC(N)=O)C2=O | – | – | –
66 | COCCNC1=C2C[C@@H](C)C[C@H](OC)[C@H](O)[C@@H](C)/C=C(\C)[C@H](OC(N)=O)[C@@H](OC)/C=C\C=C(/C)C(=O)NC(=CC1=O)C2=O | – | – | –
14 | CO[C@H]1C[C@H](C)CC2=C(N3CCC3)C(=O)C=C(NC(=O)/C(C)=C/CC[C@H](OC)[C@@H](OC(N)=O)/C(C)=C/[C@H](C)[C@H]1O)C2=O | 27 | 38 | –
